What was measured:
[1] = tested on: isolated giant neurons of mollusk Planorbarius Corneus; experiment: physiological functions in isolated giant neurons of mollusk; format: cell-based
Excerpt: Several double derivatives of glutamic acid {E-(CH2)n-E} or containing amino acids (glycine, lysine, histidine, and/or arginine, {E-amino acid-E}) including chelates (Fe2+, Mg2+, or Zn2+) were synthesized and used to study their physiological functions in isolated giant neurons of mollusk Planorbarius Corneus. […] The effect of these substances depended on the length of the amino acid chain (CH2)n between the residues of glutamic acid.
The Hill coefficient (nH) is a central parameter in the study of ligand-protein interactions, which measures the degree of co-operativity between subunits that bind the ligand in multi-subunit proteins. The most common usage of nH is as an estimate of the minimal number of interacting binding sites in positively co-operating systems. The Hill coefficient for tested compounds was about 0.75.

[2] = tested on: patients who had suffered an acute ischemic stroke; conditions: sublingual 2.0 g/day, five consecutive days, acute ischemic stroke within six hours

N[C@@H](CCC(=O)O)C(=O)O [glutamate]
neuronal response evoked by application ([1]; isolated giant neurons, application/injection of substance): biphasic responses

NCC(=O)O [glycine]
decrease of 30 day mortality compared to placebo [2]: 20%

glutamic acid-lysine Zn2+-arginin-glutamic acid
effect on neurons depending on chain length between glutamic acid residues ([1]; comparison among double derivatives): maximal effect
